Measured values from patent US9845471B2, “Compositions and methods for treating pancreatic cancer” (Fred Hutchinson Cancer Research Center, priority 2013, dated 2017).

Assays:
Runx3 [1] = experiment: Runx3 immunoblot after histone deacetylase inhibitor treatment; assay type: cell-based, murine; settings: KPD carcinoma cells; TSA at 0, 10, or 40 μM; 48 hours of treatment
Protocol: To directly test of this potential involvement of Hdac5 in the post-translational control mechanism of Runx3, a histone deacetylase inhibitor was used to determine whether Runx3 levels increased when deacetylation of Runx3 by Hdac5 was minimized or abrogated (i.e., whether the acetylation level of Runx3 does in fact affect physiologic degradation). Briefly, cells (4×10^5) were plated in 60 cc dishes and trichostatin A (TSA) (Tocris Biosciences, MO, USA), an Hdac5 inhibitor, was added at 0, 10, or 40 μM at 24 hours. Total RNA or whole cell lysates were prepared as described herein after 48 hours of treatment, and the latter resolved on 4-12% Bis-Tris gels, transferred to PVDF and probed with Runx3 antibody.

MiaPaCa-2 cells = experiment: Scratch wound migration assay, MiaPaCa-2; assay type: cell-based, human; settings: TGFβ
Protocol: (§1) In addition to examining EMT, carcinoma cells were examined for their ability to migrate. For migration assays, cells were first incubated in the presence or absence of TGFβ (5 ng/ml) for 60 hours to achieve growth arrest (in order to separate out effects of proliferation rather than migration; see Izeradjene et al., 2007), then serum starved for 8 hours. Confluent cultures were scratched with a 20 μl pipette tip to generate a wound in three horizontal stripes per well; each experimental condition was performed in triplicate wells. All experiments were conducted in triplicate at least 3 independent times on at least 2 different cell lines from each genetic background. A minimum of six points across each wound were assessed independently by two investigators at the indicated time intervals for the presence of cells within the expanse. Representative photographs were taken from a minimum of 6-8 separate high power fields. For all assays, media was replaced every 24 hours with or without TGFβ and photographed every 24 hours.
(§2) As an initial analysis, the human pancreas cancer cell lines were tested in the scratch wound migration assay described herein. The basal levels of RUNX3 in these human PDA cell lines correlated with their migratory potential, as MiaPaCa-2 cells migrated far less well than CFPAC-1 and Panc-1 cells (FIG. 9B). […]

[2] = tested on: Runx3 complexes with Smad2 and Smad4; experiment: Smad2 immunoprecipitation of Runx3 complexes, KP; assay type: cell-based, murine; settings: KP cells, incubated with TGFβ prior to lysis
Protocol: (§3) To examine whether the transcriptional activity of Runx3 was exercised in complex with Smad4/Dpc4, immunoprecipitation assays were performed. Briefly, cells were lysed by sonication in 20 mM HEPES (pH 7.5), 400 mM KCl, 5% Glycerol, 5 mM EDTA, 0.4% Np40, supplemented with 1×protease inhibitor (Sigma, MO, USA), phosphotase inhibitor cocktails I and II (Sigma, MO, USA), and the lysates cleared by centrifugation. Extracts were diluted to 20 mM HEPES (pH 7.8), 50 mM KCl, 5% Glycerol, 2.5 mM MgCl2, 0.05% NP40 and incubated with Smad2 antibody (2.5 μg/ml from AbCam, Cambridge Mass., USA) and Protein A-Sepharose beads for 4 hours at 4° C. Beads were washed and co-purified proteins liberated in boiling Laemmli buffer and analyzed by immunoblot with the appropriate primary antibody. ExactaCruz secondary antibodies (Santa Cruz biotechnology) were used to reduce background from IgG.

CFPAC-1 cells = experiment: Scratch wound migration assay, CFPAC-1; assay type: cell-based, human; settings: CFPAC1 cells
Protocol: as §1, §2

[3] = tested on: KP primary carcinoma cells; experiment: Scratch wound migration assay, KP; assay type: cell-based, murine
Protocol: as §1, with “For all assays, media was replaced every 24 hours with or without TGFβ and photographed every 24 hours.” left out
(§4) Dpc4 expression was knocked down using a short hairpin RNA (shRNA) sequence (GAUUAACACUGCAGAGUAA, SEQ ID NO.: 19) targeting murine DPC4 procured in a pGIPZ vector (Open Biosystems). […] DPC4 transcript levels in murine cell lines were analyzed by qRT-PCR using the Taq-man assay per the manufacturer's recommendations (Applied Biosystems, CA, USA) with GAPHD as an internal control.

[4] = tested on: Runx3 complexes with Smad2 and Smad4; experiment: Smad2 immunoprecipitation of Runx3 complexes, KPD; assay type: cell-based, murine; settings: KPD cells, incubated with TGFβ prior to lysis
Protocol: as §3

KP PDA cells = experiment: EMT immunofluorescence (actin stress fibers, E-cadherin), KP; assay type: cell-based, murine
Panc-1 cells [5] = experiment: Scratch wound migration assay, Panc-1; assay type: cell-based, human
Protocol: as §1, §2

KPD cells [6] = experiment: Cell proliferation assay; assay type: cell-based, murine; settings: TGFβ 5 ng/ml
Protocol: For immunocytochemistry, the primary antibody used was Ki-67 (1:25, Dako, Calif., USA), which is a marker of proliferating cells. For cell proliferation assays, equal numbers of murine or human cells (30,000) were plated in triplicate for each cell line and incubated in the presence or absence of TGFβ (5 ng/ml, R&D Systems, USA). Cells were counted manually at 24 hour intervals. Data points represent the mean±SEM of triplicate determinations from at least 3 independent experiments. All experiments were conducted in triplicate at least 3 independent times on at least 2 different cell lines from each genetic background. Representative photographs were taken from a minimum of 6-8 separate high power fields. For all assays, media was replaced every 24 hours with or without TGFβ and photographed every 24 hours.

KPD PDA cells = experiment: EMT immunofluorescence (actin stress fibers, E-cadherin), KPD; assay type: cell-based, murine
Protocol: First, KPD pancreas cancer cells were probed by immunofluorescence for their ability to undergo epithelial-to-mesenchymal transition (EMT), a program of morphological and molecular changes implicated in the metastatic phenotype. Briefly, cells were grown on glass cover slips and treated for 72 hours in the presence or absence of TGFβ (5 ng/ml); media was replaced every 24 hours. For E-cadherin immunofluorescence, cells were fixed in ice cold methanol:acetone (1:1) for 15 minutes. For F-actin IF, cells were fixed in 4% paraformaldehyde for 30 minutes at RT followed by brief rinse in 0.15M glycine to quench the PFA. After fixation, the cells were washed with PBS and blocked for 1 hour at RT with 2% fatty acid-free BSA/2.5% goat serum. Cells were incubated with E-cadherin primary antibody (1:200, BD Biosciences) or Alexafluor488 F-actin (1:1000) for 1 hour at RT. Alexafluor 488 secondary antibody was used to visualize E-cadherin antibody. Cells were counterstained with DAPI and the slips mounted with Prolong Gold Anti-fade (Invitrogen, CA, USA). Images were acquired using a Nikon Eclipse 80i microscope with NIS Elements Software (Nikon, v3.1).

[7] = tested on: KPD primary carcinoma cells; experiment: Scratch wound migration assay, KPD; assay type: cell-based, murine
Protocol: as §1, with “For all assays, media was replaced every 24 hours with or without TGFβ and photographed every 24 hours.” left out
as §4

Runx3 [8] = experiment: Runx3 immunoblot after targeted depletion of Smad4; assay type: cell-based, murine; settings: KPD cells; converse of the increase seen with Smad4 over-expression
Protocol: For immunoblot analysis, whole cell lysates were prepared using 1×RIPA buffer (Millipore, CA, USA) supplemented with 1×protease inhibitor (Sigma, MO, USA) and phosphotase inhibitor cocktails I and II (Sigma, MO, USA). For immunoblot experiments, 20 μg (murine) or 30 μg (human) whole cell protein lysate were separated on a 4-12% Bis-tris gel system (Invitrogen, CA, USA) and transferred to PVDF membrane (Millipore, CA, USA). Primary antibodies used were Dpc4, p16, p19, Actin (all at 1:2000, Santa Cruz, Calif., USA), and p53 (1:1000, Vector Lab, CA, USA).
(§5) Dpc4 expression was knocked down using a short hairpin RNA (shRNA) sequence (GAUUAACACUGCAGAGUAA, SEQ ID NO.: 19) targeting murine DPC4 procured in a pGIPZ vector (Open Biosystems). A control sequence (scrambled, scr) was used as a negative control. High-titer lentivirus was made and PDA cells were infected and selected for stable expression of the DPC4-specific shRNA. Knockdown was confirmed by qRT-PCR. Briefly, total RNA was reverse transcribed using the high capacity cDNA synthesis kit (Applied Biosystems, CA, USA) and qRT-PCR performed using SYBER green supermix (Bio-Rad, VA, USA) on a CFX-96 thermal cycler. […] DPC4 transcript levels in murine cell lines were analyzed by qRT-PCR using the Taq-man assay per the manufacturer's recommendations (Applied Biosystems, CA, USA) with GAPHD as an internal control.

KPD cells [9] = experiment: Tail vein pulmonary metastasis assay in nude mice, KPD cells; assay type: in vivo, nude mice (Athymic NCr-nu/nu); settings: KPD cells with complete knockdown of Dpc4, tail vein injection
Protocol: (§6) Purified KP and KPD carcinoma cells were also injected into the circulation of immunocompromised mice and scored for their ability to form pulmonary metastases. Briefly, murine cells were studied in a classical tail vein metastasis assay in nude mice (Athymic NCr-nu/nu). At least 3 animals were injected (1×10^5 or 1×10^6 cells/injection, depending on the experiment) for each independently derived cell line and all experiments were performed at least twice. […] Metastatic disease burdens were assessed as a ratio of cross-sectional area occupied by tumor to whole lung area using ImageJ software (NIH).
as §5, with “qRT-PCR.” for “qRT-PCR. Briefly, total RNA was reverse transcribed using the high capacity cDNA synthesis kit (Applied Biosystems, CA, USA) and qRT-PCR performed using SYBER green supermix (Bio-Rad, VA, USA) on a CFX-96 thermal cycler.”

KP cells = experiment: Tail vein pulmonary metastasis assay in nude mice, KP cells; assay type: in vivo, nude mice (Athymic NCr-nu/nu); settings: KP cells with Dpc4 extinguished, tail vein injection
Protocol: as §6
as §5, with “qRT-PCR.” for “qRT-PCR. Briefly, total RNA was reverse transcribed using the high capacity cDNA synthesis kit (Applied Biosystems, CA, USA) and qRT-PCR performed using SYBER green supermix (Bio-Rad, VA, USA) on a CFX-96 thermal cycler.”

COL6A1 = COL6A1 expression by qRT-PCR; assay type: cell-based, human; settings: shRUNX3 transfected Panc-1 cells vs scrambled
Protocol: (§7) Human RUNX3 was cloned into pBABE hygromycin vector and stable RUNX3 expressing HEK293T cells were prepared using a similar protocol to that used to make the murine version. Also, shRNA sequences targeting human RUNX3 to knock down expression were procured in pGIPZ vectors (Open Biosystems). High-titer lentivirus was made and PDA cells were infected and selected for stable expression of the […] shRNA (SEQ ID NO.: 20, CGGCAGAAGCUGGAGGACC). Knockdown was confirmed by qRT-PCR.
Transcript levels in Runx3-overexpressing carcinoma cells were determined using qRT-PCR as described herein. The Spp1 mouse forward and reverse primers used were SEQ ID NO.:5 ([…]) and SEQ ID NO.:6 ([…]), respectively; the Col6A1 mouse forward and reverse primers were SEQ ID NO.:7 (CTGCTGCTACAAGCCTGCT) and SEQ ID NO.:8 (CTGCTGCTACAAGCCTGCT), respectively; and the COL6A1 human forward and reverse primers were SEQ ID NO.:9 ([…]) and SEQ ID NO.:10 ([…]), respectively.

Panc-1 cells [10] = experiment: Pulmonary metastasis assay in NOD/SCID mice; assay type: in vivo
Protocol: as §6, §7
To determine whether overexpression of RUNX3 in human PDA cells also promotes metastasis, pulmonary metastasis assays were performed using NOD/SCID mice.

## CC(/C=C/C(=O)NO)=C\[C@@H](C)C(=O)c1ccc(N(C)C)cc1 [TSA, trichostatin A]
Runx3 [1]
  levels of Runx3 (immunoblot): raise levels of Runx3 to approximately those found in KP cells

## TGFβ
MiaPaCa-2 cells
  migration: modestly inhibited the migration
[2]
  Runx3/Smad2/Smad4 complex formation: favor complex formation
CFPAC-1 cells; TGFβ
  migration: promoted or left unaffected
[3]; TGFβ 5 ng/ml
  migration: stimulated
[4]
  Runx3/Smad2/Smad4 complex formation: inhibit it
KP PDA cells; TGFβ 5 ng/ml, 72 hours
  EMT: readily underwent TGFβ-induced EMT
Panc-1 cells [5]; TGFβ
  migration: promoted or left unaffected
KPD cells [6]
  growth arrest (proliferation): only partially growth-arrested
KPD PDA cells; KPD PDA cells, TGFβ 5 ng/ml, 72 hours
  EMT (actin stress fibers, surface E-cadherin): EMT is essentially intact
[7]; TGFβ 5 ng/ml
  migration: did not respond in kind

## shDpc4: short hairpin RNA (GAUUAACACUGCAGAGUAA, SEQ ID NO.: 19) targeting murine DPC4 in a pGIPZ vector
Runx3 [8]
  Runx3 levels (immunoblot): had the converse effect
KPD cells [9]
  metastatic potential: enhanced their metastatic potential
[3]; Dpc4 depleted by shRNA
  migration: migration increased slightly
KP PDA cells; late ablation of Dpc4 by shRNA
  EMT in response to TGFβ: did not completely prevent EMT
KP cells
  metastatic potential: did not diminish their already considerable metastatic potential
KPD PDA cells; KPD carcinoma cells, complete loss of Dpc4 expression by shRNA
  EMT in response to TGFβ: some morphological features of EMT in response to TGFβ also persisted
[7]; complete ablation of Dpc4 expression by shRNA
  basal migratory behavior: increased their basal migratory behavior modestly

## shRUNX3: shRNA targeting human RUNX3 (SEQ ID NO.: 20, CGGCAGAAGCUGGAGGACC) in pGIPZ vector, delivered by lentivirus
COL6A1
  COL6A1 transcript levels: reduces COL6A1 transcript levels
Panc-1 cells [10]; NOD/SCID mice injected with RUNX3 knockdown Panc-1 cells, n=3
  liver weights: 0.53 ± 0.06 g
Panc-1 cells [10]; RUNX3-depleted Panc-1 cells in NOD/SCID mice
  ability to seed and support secondary metastases to the liver: considerably decreased
Panc-1 cells [10]; RUNX3-knockdown vs control Panc-1 cells in NOD/SCID mice
  number of lung metastases: comparable number of lung metastases
CFPAC-1 cells; stable RUNX3-specific shRNA
  migration: inhibited their migration
Panc-1 cells [5]; stable RUNX3-specific shRNA
  migration: inhibited their migration
